# Assay results as given in patent US20060088533A1, “Methods of treating inflammatory bowel disease” (priority 2004, published 2006).
# How the values were obtained:
# IL-8 promoter = test: IL-8 luciferase promoter assay; type: cell-based, human; conditions: NCM460 cells; inhibitor 30 minutes, then TxB 20 nM 16 hours; versus DMSO
# Experimental: A 1521-bp fragment (nucleotides −1481 to +40) of the promoter region of the human IL-8 gene was used to monitor transcription of IL-8 gene as previously described (Keates, S. et al., J. Biol. Chem., 276:48127-48134 (2001)). Cells were grown on 24-well plates and transiently transfected with the IL-8 promoter luciferase construct and a control luciferase construct pRL-TK (Promega Corp., Madison, Wis.) using Superfect (Qiagen Inc., Chatsworth, Calif.). Transfected cells were serum starved overnight and then exposed to TxB and/or pharmacological inhibitors at the indicated times. Cells were lysed, and firefly and renilla luciferase activities in cell extracts were measured using Dual-Luciferase Reporter Assay System (Promega Corp., Madison, Wis.). The relative luciferase activity was calculated by normalizing IL-8 promoter-driven firefly luciferase activity to control Renilla luciferase activity. Data from all experiments are represented as the relative luciferase activity (mean ±SD) from at least three independent sets of experiments, each with triplicate measurements.
# EGFR = target: T1, EGFR (Homo sapiens, UniProt P00533); test: Western blot of EGFR phosphorylation in colonocytes exposed to C. difficile toxin; type: cell-based; conditions: for TxB's activation of EGFR: colonocytes preincubated with BAPTA 20uM or GF109203X 1uM before TxB addition
# T1 construct: endogenous in cells; host or cells: NCM460 (nontransformed human colonic epithelial cells); HT29 (colonic adenocarcinoma cells)
# ERK1/2 = test: Western blot of ERK1/2 phosphorylation in colonocytes exposed to C. difficile toxin or LPA; type: cell-based, human; conditions: for TxB's activation of ERK: colonocytes preincubated with BAPTA 20uM or GF109203X 1uM before TxB addition
# Experimental: NCM460 or HT29 cells were seeded in 12 well plates and grown to 70%-100% confluency. Cells were serum starved overnight prior to experiments. TxB or TxA were added in serum free medium at the indicated concentrations for varying lengths of time. Cells were then washed three times with ice cold phosphate buffered saline (PBS) and lysed in 1×SDS sample buffer (Cell Signaling Technology, Beverly, Mass.). Equal amounts of cell lysates were loaded onto 10% SDS-PAGE gels and transferred to nitrocellulose membranes (Bio-Rad Laboratories, Hercules, Calif.). Blots were probed with each primary antibody overnight at 4° C. and then with species-specific secondary antibodies coupled with horseradish peroxidase for 1 hour at room temperature. Peroxidase activity was detected by SuperSignal Chemiluminescent Substrate (Pierce, Rockford, Ill.). Signals were analyzed and quantified as described (Na, X. et al., EMBO J., 22:4249-4259 (2003)) and results were expressed as mean ±SD.
# TGF-α = TGF-α secretion ELISA; type: cell-based, human; conditions: NCM460 cells; GM6001 25 μM 30 minutes prior to TxB for 1 or 3 hours; versus DMSO
# Experimental: TGF-α secretion from colonocyte cultures was measured by enzyme-linked immunosorbent assay. Briefly, 96-well Nunc-immuno plates (Fisher Scientific) were coated with 0.4 ug/ml of TGF-α antibody diluted in PBS overnight at room temperature. Wells were blocked with PBS containing 1% BSA for 1 hour after washing 3 times with PBST (PBS with 0.1% Twin-20). Fifty μl of conditioned media or serial dilutions of TGF-α in PBS containing 1% BSA were then added to each well. After 2 hours, wells were washed and incubated with 0.3 μg/ml biotin-conjugated anti-TGF-α antibody for 1 hour. Streptavidin-horseradish peroxidase (1:1500) from Amersham Bioscience (Amersham, UK) was added to the wells. Peroxidase activity was measured by TMB Peroxidase Substrate Reagents (KPL Inc, Gaithersburg, Md.).
# Rho = test: C3 exoenzyme-catalyzed ADP-ribosylation assay (TxB-induced Rho glucosylation); type: cell-based, human; conditions: NCM460 cells; EGFR antibody 20 μg/ml or AG1478 0.5 μM 30 minutes, then TxB 20 nM 1 hour
# IL-8 [1] = conditions: cited from earlier work
# NCM460 cells = test: Cell rounding assay; type: cell-based, human; conditions: EGFR antibody 20 μg/ml or AG1478 0.5 μM 30 minutes, then TxB 20 nM 1 hour
# Experimental: NCM460 cells were seeded on glass cover slides overnight. […] Cells were then fixed with formaldehyde for 10 minutes and rinsed three times in PBS. Percentage of cell rounding was quantitated by phase-contrast microscopy.
# IL-8 [2] = conditions: cited from earlier work; remark: listed apart in the source
# T1 sequence (P00533 25-1210): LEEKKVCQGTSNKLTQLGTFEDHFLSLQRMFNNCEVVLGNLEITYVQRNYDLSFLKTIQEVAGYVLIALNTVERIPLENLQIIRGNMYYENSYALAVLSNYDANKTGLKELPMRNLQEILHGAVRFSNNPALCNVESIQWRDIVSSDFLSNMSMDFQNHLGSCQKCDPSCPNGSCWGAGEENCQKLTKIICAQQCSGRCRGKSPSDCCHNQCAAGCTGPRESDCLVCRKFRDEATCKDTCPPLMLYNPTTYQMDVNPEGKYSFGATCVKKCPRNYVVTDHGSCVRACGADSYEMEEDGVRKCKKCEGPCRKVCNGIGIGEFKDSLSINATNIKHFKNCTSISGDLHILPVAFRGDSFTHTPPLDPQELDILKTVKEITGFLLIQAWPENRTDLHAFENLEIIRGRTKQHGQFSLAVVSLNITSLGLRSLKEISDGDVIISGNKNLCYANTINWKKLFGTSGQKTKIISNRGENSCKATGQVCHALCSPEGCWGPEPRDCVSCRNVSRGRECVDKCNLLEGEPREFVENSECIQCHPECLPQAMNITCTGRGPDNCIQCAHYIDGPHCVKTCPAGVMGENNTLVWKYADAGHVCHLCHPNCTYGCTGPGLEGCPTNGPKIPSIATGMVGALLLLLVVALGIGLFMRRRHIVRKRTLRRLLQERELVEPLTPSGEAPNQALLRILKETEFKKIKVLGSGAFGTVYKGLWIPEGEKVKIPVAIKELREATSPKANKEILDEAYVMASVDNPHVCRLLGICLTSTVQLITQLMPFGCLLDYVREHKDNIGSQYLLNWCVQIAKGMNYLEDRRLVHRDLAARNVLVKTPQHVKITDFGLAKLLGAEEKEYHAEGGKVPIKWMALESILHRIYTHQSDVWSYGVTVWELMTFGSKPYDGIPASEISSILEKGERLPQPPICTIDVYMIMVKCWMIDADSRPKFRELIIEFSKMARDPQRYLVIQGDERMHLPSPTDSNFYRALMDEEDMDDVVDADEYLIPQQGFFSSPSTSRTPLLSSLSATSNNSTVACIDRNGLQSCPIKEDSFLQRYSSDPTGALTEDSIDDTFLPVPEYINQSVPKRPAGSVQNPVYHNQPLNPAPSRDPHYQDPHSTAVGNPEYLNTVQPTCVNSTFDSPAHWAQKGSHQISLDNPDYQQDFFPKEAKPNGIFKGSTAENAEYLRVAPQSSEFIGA
compound,measurement,setting,value
COc1cccc(-c2cc(=O)c3ccccc3o2)c1N [PD98059],TxB-mediated IL-8 expression,IL-8 promoter,significantly inhibited
CN(C)CCCn1cc(C2=C(c3c[nH]c4ccccc34)C(=O)NC2=O)c2ccccc21 [GF109203X],TxB's activation of EGFR,EGFR,decreased
same,TxB's activation of ERK,ERK1/2,decreased
CNC(=O)[C@H](Cc1c[nH]c2ccccc12)NC(=O)[C@@H](CC(=O)NO)CC(C)C [GM6001],Activation of the EGFR induced by TxB,"EGFR; NCM460 cells, BB94 or GM6001 25 μM 30 minutes prior to TxB 20 nM, versus DMSO at 60 minutes",significantly inhibited
same,Activation of ERK1/2 induced by TxB,"ERK1/2; NCM460 cells, BB94 3 mg/ml or GM6001 25 μM 30 minutes prior to TxB 20 nM, versus DMSO at 60 minutes",significantly inhibited
same,TxB-induced TGF-α secretion,TGF-α,significantly inhibited
"COc1cc2ncnc(Nc3cccc(Cl)c3)c2cc1OC [AG1478, tyrphostin AG1478]",Activation of ERK1/2 by TxB,"ERK1/2; NCM460 cells, AG1478 0.2-1.0 uM for 30 minutes, then TxB 20 nM 60 minutes",completely blocked
same,TxB-induced Rho glucosylation,Rho,"neither an EGFR antibody, nor a specific EGFR inhibitor, AG1478, altered"
same,IL-8 production mediated by neurotensin,IL-8 [1],significantly reduced
same,TxB-mediated IL-8 expression,IL-8 promoter,significantly inhibited
same,TxB-induced cell rounding,NCM460 cells,"neither an EGFR antibody, nor a specific EGFR inhibitor, AG1478, altered"
same,IL-8 production mediated by H. pylori,IL-8 [2],significantly reduced
O=C(O)CN(CC(=O)O)c1ccccc1OCCOc1ccccc1N(CC(=O)O)CC(=O)O [BAPTA],TxB's activation of EGFR,EGFR,decreased
same,TxB's activation of ERK,ERK1/2,decreased
